Data taken from patent US8314068B2, “P2X7 inhibition of epithelial cancers and papillomas” (University Hospitals of Cleveland, priority 2009, dated 2012).

Columns and labels:
[1] = tested on: mouse wild-type normal keratinocytes; assay: DNA synthesis ([3H]-thymidine incorporation) in mouse wild-type normal keratinocytes; assay type: cell-based; conditions: BzATP 100 μM 8 hours; oligonucleotides 100 μM 14 hours
Protocol: FIG. 20 presents exemplary data showing the effects of pre-treatment with anti-sense P2X7 oligonucleotides (ASO) or random-control P2X7 oligonucleotides (RCO) (both at 100 μM for 14 hours), and of treatments with BzATP (100 μM, 8 hours) on [^3H]-thymidine incorporation in mouse wild-type normal keratinocytes (values are means±SD, n=4).
Changes in DNA synthesis were determined in terms of [^3H]-thymidine incorporation as described Wang et al., “EGF facilitates epinephrine inhibition of P2X7-receptor mediated pore formation and apoptosis: a novel signaling network” Endocrinology 2005, 146:164-174. The radioactivity (dpm/mg Protein, determined by Bio-Rad Protein Assay solution [Hercules, Calif.]) of triplicated samples was determined by beta scintillation counting (Beckman LS1801 scintillation counter).

[2] = tested on: DMBA/TPA-induced skin papillomas; assay: DMBA/TPA mouse skin papilloma model, 12 weeks (Experiment-3); assay type: in vivo
hEVEC cells = assay: Apoptosis in hEVEC cells; assay type: cell-based, human
[3] = tested on: mouse wild-type normal keratinocytes; assay: Apoptosis in cultured mouse wild-type keratinocytes; assay type: cell-based; conditions: 8 hours
[4] = biological target: T1, human full-length P2X7 receptor (N-Myc-hP2X7-MDCK cells) (Homo sapiens, UniProt Q99572); assay: Apoptosis and P2X7 expression in N-Myc-hP2X7-MDCK cells; assay type: cell-based; conditions: BzATP 100 μM, 8 hrs
T1 construct: MDCK cells heterologously expressing the human full-length P2X7 receptor tagged with N-Myc at the N-terminus; expressed in transfected cells; host or cells: MDCK (strain II) cells expressing tetracycline-regulated repressor
T1 sequence (Q99572 1-595): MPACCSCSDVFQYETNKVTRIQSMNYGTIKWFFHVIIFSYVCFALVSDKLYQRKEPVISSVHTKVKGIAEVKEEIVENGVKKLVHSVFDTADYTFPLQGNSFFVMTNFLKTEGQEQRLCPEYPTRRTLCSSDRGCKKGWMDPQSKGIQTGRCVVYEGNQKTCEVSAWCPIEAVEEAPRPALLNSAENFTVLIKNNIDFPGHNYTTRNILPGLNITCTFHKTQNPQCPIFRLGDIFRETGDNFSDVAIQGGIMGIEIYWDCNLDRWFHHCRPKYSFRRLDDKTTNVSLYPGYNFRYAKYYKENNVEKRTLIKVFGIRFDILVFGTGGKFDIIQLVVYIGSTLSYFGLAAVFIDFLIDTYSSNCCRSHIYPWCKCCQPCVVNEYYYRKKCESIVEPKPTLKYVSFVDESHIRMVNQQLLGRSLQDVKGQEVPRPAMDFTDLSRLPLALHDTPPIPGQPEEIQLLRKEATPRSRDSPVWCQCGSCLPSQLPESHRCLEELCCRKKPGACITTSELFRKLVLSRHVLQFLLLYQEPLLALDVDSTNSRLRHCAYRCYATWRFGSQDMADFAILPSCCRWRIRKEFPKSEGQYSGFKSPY

WT-MDCK cells = assay: Apoptosis in wild-type MDCK cells lacking P2X7; assay type: cell-based, canine; conditions: 100 μM, 8 hrs
P2X7 receptor = conditions: cited from earlier work
[5] = tested on: mouse wild-type keratinocytes; assay: Cytosolic calcium (Fluo-4) in mouse wild-type keratinocytes; assay type: cell-based
Protocol: FIG. 17A: Time course of changes in cytosolic calcium (ΔCa^2+i), in medium containing 1.2 mM Ca^2+ (upper trace) or 1.2 mM Ca2+ plus 1.2 mM EGTA (lower trace).
FIG. 17C: Dose response profile comparison between ΔCa^2+i and Eth-Br influx. Cells were treated with each BzATP concentration for […]. Levels of ΔCa^2+i (empty circles) were determined 2 min after adding BzATP; changes in Eth-Br fluorescence (filled circles) were determined 5 min after adding BzATP. Values=means±SD. Experiments were repeated 3 times. AU=arbitrary units.
Changes in Ca^2+i in cultured cells were determined in terms of changes in intracellular Fluo-4 fluorescence using dynamic confocal laser scanning microscopy. Cultured mouse keratinocytes were loaded with 5 μM Fluo-4/AM, and imaged with a Zeiss LSM 510 inverted real-time confocal microscope. Images were collected at 488 nm/505 nm (exc/emi) at intervals of 10 to 15 seconds after treatment with 100 μM BzATP, added to the perfusate. For ethidium bromide influx experiments, glass-bottomed dishes cultured with mouse keratinocytes were placed in the microscope. Images (collected at 488 nm/505 nm [exc/emi]) were taken before, and at intervals of 30 seconds after adding 5 μM ethidium bromide to the perfusate as described. Average fluorescence intensity was quantified from collated images using MetaVue software (Fryer Company Inc., Huntley, Ill.) by subtracting the basal intensity value.

augmentation of apoptosis [4]: 2.5 fold
Structure (SMILES): Nc1ncnc2c1ncn2[C@@H]1O[C@H](COP(=O)(O)OP(=O)(O)OP(=O)(O)O)[C@@H](OC(=O)c2ccc(C(=O)c3ccccc3)cc2)[C@H]1O [BzATP, 3′-O-(4-benzoylbenzoyl)adenosine triphosphate]
effect on [3H]-thymidine incorporation [1]: no significant effect
TUNEL staining of papilloma tissues ([2]; biopsy at week 10, basal/parabasal regions): intense TUNEL staining
decrease of mean number of papillomas per animal ([2]; versus DMBA/TPA group): about 25%
decrease of mean papilloma size ([2]; versus DMBA/TPA group): about 45%
animals having at least one papilloma ([2]; week 6, DMBA/TPA+BzATP group): 53.8%
papillomas per animal (mean±SEM) ([2]; week 10, DMBA/TPA+BzATP group): 1.23±0.34
animals with at least one skin papilloma ([2]; week 12, DMBA/TPA+BzATP group): 78%
mean papilloma size per animal (mean±SEM) ([2]; week 12, DMBA/TPA+BzATP group): 3.46 ±0.73 mm
increase of apoptosis by BzATP (hEVEC cells): 2.5 fold
concentration of maximal apoptosis effect [3]: 100 to 250 µM
lowest BzATP level at which apoptosis effects began [3]: 50 nM
EC50 ([3]; Mus musculus, Keratinocyte, read-out: estimated EC50 of apoptosis augmentation): ~10 µM
BzATP-induced apoptosis (WT-MDCK cells): did not induce apoptosis
EC50 (P2X7 receptor): 35 µM
potency at the P2X7 receptor relative to ATP (P2X7 receptor; greater potency than ATP): 5-10 fold
concentration of pre-maximal response, cytosolic calcium [5]: 100 to 250 µM
threshold concentration, cytosolic calcium [5]: 50 to 100 nM
change in cytosolic calcium ([5]; 100 μM BzATP, 1.2 mM Ca^2+): acute increase in cytosolic calcium
duration of increase in cytosolic calcium ([5]; 100 μM BzATP, 1.2 mM Ca^2+): at least 6 minutes
